{
  "source": "patent US5474993A",
  "about": "“Lactam inhibitors of cholesterol esterase” (Sterling Winthrop, Inc., priority 1994, dated 1995)",
  "target": "T1, pancreatic cholesterol esterase (PCEH) (Homo sapiens, UniProt P19835)",
  "T1 sequence (P19835 21-753)": "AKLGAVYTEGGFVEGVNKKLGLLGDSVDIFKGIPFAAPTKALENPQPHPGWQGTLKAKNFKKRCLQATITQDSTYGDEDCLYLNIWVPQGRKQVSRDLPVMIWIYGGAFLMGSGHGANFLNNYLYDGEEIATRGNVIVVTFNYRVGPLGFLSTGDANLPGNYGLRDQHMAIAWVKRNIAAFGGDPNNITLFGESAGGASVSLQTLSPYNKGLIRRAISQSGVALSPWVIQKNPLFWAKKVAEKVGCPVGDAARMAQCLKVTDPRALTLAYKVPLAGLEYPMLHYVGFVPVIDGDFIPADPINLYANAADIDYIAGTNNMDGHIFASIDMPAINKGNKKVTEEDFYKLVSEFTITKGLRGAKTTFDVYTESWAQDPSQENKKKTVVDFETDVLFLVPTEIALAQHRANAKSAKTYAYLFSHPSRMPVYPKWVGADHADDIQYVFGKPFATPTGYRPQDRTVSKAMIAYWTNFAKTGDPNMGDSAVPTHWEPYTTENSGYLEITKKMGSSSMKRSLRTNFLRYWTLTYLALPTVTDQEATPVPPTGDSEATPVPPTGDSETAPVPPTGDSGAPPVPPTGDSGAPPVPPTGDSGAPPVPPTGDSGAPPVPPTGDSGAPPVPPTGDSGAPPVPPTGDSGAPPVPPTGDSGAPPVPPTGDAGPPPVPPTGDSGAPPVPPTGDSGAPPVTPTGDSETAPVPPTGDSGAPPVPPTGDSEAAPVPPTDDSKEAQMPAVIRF",
  "assay": "KM estimation for PNPA substrate",
  "type": "biochemical",
  "details": "nonlinear fit to the rate-progress curve",
  "experimental": "Purified pancreatic cholesterol esterase or ester hydrolase (PCH), shown by SDS-acrylamide and isoelectric focusing electrophoresis to be homogeneous,is used in a fresh solution of 90 mM (PNPA) in methanol.\nFirst an initial screen is conducted as follows: to determine the effect of an inhibitor on the rate of enzyme catalyzed hydrolysis of PNPA, enzyme and inhibitor are first incubated at room temperature for ten minutes. Following incubation, enough PNPA substrate to give a final concentration of 0.225 mM is added. The rate of PNPA hydrolysis is monitored by observing an increase of absorption at 405 nm over the course of ten minutes. On average, the concentration of inhibitor is 1300-fold greater than that of the enzyme inhibitor concentrate. The maximum solubility of PNPA of approximately twice the value of Km, limited the accuracy the KM determination for the PNPA substrate. The estimated KM based on a nonlinear fit to the rate-progress curve is KM ~1 mM. With this estimate the substrate concentration used in the screen was approximately 0.25 KM.",
  "data": [
    {"smiles": "CC(=O)Oc1ccc([N+](=O)[O-])cc1", "note": "[PNPA, p-nitrophenyl acetate]", "values": [
      {"measurement": "estimated KM", "value": "~ 1 mM"}
    ]}
  ]
}
